Data from patent EP0049801B1, “Sucrose-mutase, immobilized sucrose-mutase and use of this immobilized sucrose-mutase for the production of isomaltulose(6-O-alpha-D-glucopyranosido-D fructose)” (BAYER AG, priority 1980, dated 1982).

Tested on: Saccharose-Mutase
Assay: Influence of ions on the enzymatic reaction
Type: biochemical, Protaminobacter rubrum
Experimental: Das freie Enzym wird bei Temperaturen > 40 °C rasch inaktiviert. Die Reaktion wird durch CU- + Zn-Ionen stark gehemmt.

`OB(O)O` [Borat] was tested, and the “Einfluß auf die enzymatische Aktivität” value was “keinen Einfluß”.

`[Cu+2]` [CU] was tested, and the “Einfluß auf die enzymatische Aktivität” value was “stark gehemmt”.
